Data from paper PMC6717892 (The EMBO Journal, 2019).

Molecular target: T1, Bd1971 (Bdellovibrio bacteriovorus, UniProt Q6MLN6)
T1 construct: ITC: Bd1971ΔEAL (residues 1–150); crystal: full-length
Assay: ITC (two-site model) and co-crystal structure; also activates phosphodiesterase activity (K half […])
Assay type: binding

T1 sequence (Q6MLN6 entry or part of it): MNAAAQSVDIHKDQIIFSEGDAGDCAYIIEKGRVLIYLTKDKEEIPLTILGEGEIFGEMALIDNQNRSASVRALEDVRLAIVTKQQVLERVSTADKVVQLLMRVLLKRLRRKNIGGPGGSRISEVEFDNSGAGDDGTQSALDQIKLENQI

Nc1nc2c(ncn2[C@@H]2O[C@@H]3COP(=O)(O)O[C@H]3[C@H]2O)c(=O)[nH]1 [cGMP]
Kd: 769 nM
